Measurements reported in ChEMBL document CHEMBL4622962, “Bromocriptine as a Novel Pharmacological Chaperone for Mucopolysaccharidosis IV A” (ACS Med Chem Lett, 2020).
Active and inactive are the calls of the source. No cut-off for these calls is given here.

Assays:
[1] = species on record: Homo sapiens; assay: Chaperone activity at GALNS p.R386C/p.F285 deletion mutant in mucopolysaccharidosis IVA patient-derived fibroblasts GM00593 assessed as fold increase in enzyme activity using 4MUGPS as substrate at 10 uM incubated for 48 hrs by fluorescence assay relative to control
[2] = species on record: Homo sapiens; assay: Chaperone activity at GALNS p.R61W/p.W405_T406 deletion mutant in mucopolysaccharidosis IVA patient-derived fibroblasts GM01361 assessed as fold increase in enzyme activity using 4MUGPS as substrate at 0.1 uM incubated for 48 hrs by fluorescence assay relative to control
[3] = species on record: Homo sapiens; assay: Chaperone activity at GALNS p.R61W/p.W405_T406 deletion mutant in mucopolysaccharidosis IVA patient-derived fibroblasts GM01361 assessed as enzyme activity using 4MUGPS as substrate at 1 to 10 uM incubated for 48 hrs by fluorescence assay
[4] = target: T1, N-acetylgalactosamine-6-sulfatase (Homo sapiens) (UniProt P34059); assay: Chaperone activity at recombinant human GALNS expressed in HEK293 cells assessed as fold increase in extracellular enzyme activity using 4MUGPS as substrate at 10 uM incubated for 48 hrs by fluorescence assay relative to control; format: cell-based
T1 sequence (whole entry): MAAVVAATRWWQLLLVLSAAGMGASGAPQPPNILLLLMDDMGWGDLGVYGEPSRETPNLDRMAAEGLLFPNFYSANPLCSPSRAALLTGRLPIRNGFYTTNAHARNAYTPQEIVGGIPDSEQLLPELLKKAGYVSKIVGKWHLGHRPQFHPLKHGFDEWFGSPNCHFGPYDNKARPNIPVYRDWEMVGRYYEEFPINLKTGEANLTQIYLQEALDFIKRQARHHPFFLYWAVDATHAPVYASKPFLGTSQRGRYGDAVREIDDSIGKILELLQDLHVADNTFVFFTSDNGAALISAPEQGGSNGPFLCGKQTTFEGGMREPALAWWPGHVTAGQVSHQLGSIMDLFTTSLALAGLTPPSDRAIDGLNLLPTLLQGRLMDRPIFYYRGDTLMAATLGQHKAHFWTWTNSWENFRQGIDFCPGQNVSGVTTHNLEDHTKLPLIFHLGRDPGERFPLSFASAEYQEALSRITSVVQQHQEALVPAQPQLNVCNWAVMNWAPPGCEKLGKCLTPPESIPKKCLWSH

[5] = species on record: Homo sapiens; assay: Chaperone activity at GALNS p.A393S mutant in mucopolysaccharidosis IVA patient-derived fibroblasts GM00958 assessed as enzyme activity using 4MUGPS as substrate at 0.001 to 10 uM incubated for 48 hrs by fluorescence assay
[6] = target: T1, N-acetylgalactosamine-6-sulfatase (Homo sapiens); assay: Chaperone activity at GALNS in human fibroblasts assessed as change in lysosomal mass at 0.01 to 10 uM incubated for 36 hrs by deep red Lysotracker based flow cytometric analysis
[7] = Protein binding in plasma of parkinson's disease patients; format: ADME, cell-free; conditions: human, read-out: PPB
[8] = target: T1, N-acetylgalactosamine-6-sulfatase (Homo sapiens); assay: Inhibition of recombinant human GALNS expressed in Pichia pastoris at 0.001 to 50 uM using 4MUGPS as substrate incubated for 18 hrs by fluorescence assay relative to control
[9] = Total plasma concentration in parkinson's disease patients; format: ADME, cell-free; conditions: human
[10] = species on record: Homo sapiens; assay: (§1) Chaperone activity at GALNS p.R386C/p.F285 deletion mutant in mucopolysaccharidosis IVA patient-derived fibroblasts GM00593 assessed as reduction in lysosomal mass by measuring mean fluorescence intensity at 1 uM incubated for 36 hrs by deep red Lysotracker based flow cytometric analysis (reference value: 61.8 +/- 8.4%); set-up: scale not given: the % may be the effect or the level left
[11] = species on record: Homo sapiens; assay: as §1, with “p.R61W/p.W405_T406” for “p.R386C/p.F285”, “GM01361” for “GM00593”, “0.01” for “1”, “48.3” for “61.8”, “7.7%)” for “8.4%)”; set-up: scale not given: the % may be the effect or the level left
[12] = species on record: Homo sapiens; assay: as §1, with “at 10” for “at 1”; set-up: scale not given: the % may be the effect or the level left
[13] = target: T1, N-acetylgalactosamine-6-sulfatase (Homo sapiens); assay: Chaperone activity at recombinant human GALNS expressed in HEK293 cells assessed as fold increase in extracellular enzyme activity using 4MUGPS as substrate at 1 uM incubated for 48 hrs by fluorescence assay relative to control; format: cell-based
[14] = species on record: Homo sapiens; assay: Chaperone activity at GALNS p.R61W/p.W405_T406 deletion mutant in mucopolysaccharidosis patient-derived fibroblasts GM01361 assessed as reduction in lysosomal mass by measuring mean fluorescence intensity at 0.1 uM incubated for 36 hrs by deep red Lysotracker based flow cytometric analysis (reference value: 48.3 +/- 7.7%); set-up: scale not given: the % may be the effect or the level left

For CC(C)C[C@H]1C(=O)N2CCC[C@H]2[C@]2(O)O[C@](NC(=O)[C@@H]3C=C4c5cccc6[nH]c(Br)c(c56)C[C@H]4N(C)C3)(C(C)C)C(=O)N12 [BROMOCRIPTINE], the fold change (FC) [1] was 1.52, the fold change (FC) [2] was 1.5 and the Activity [3] was “inactive”. For the same compound, the fold change (FC) [4] was 1.48, the Activity [5] was “inactive” and the Activity [6] was “inactive”. The fraction unbound [7] was 0.04 to 0.1, the inhibition [8] was 30% and the concentration [9] was 10 to 250 nM. The Activity [10] was 18.2%, the Activity [11] was 11.7% and the Activity [12] was 10.5%. For the same compound, the fold change (FC) [13] was 1.36 and the Activity [14] was 7.3%.
